# Measured values published in patent publication US11285188B2, “Composition for preventing or treating metabolic diseases containing artemisiae capillaris herba and citrus unshiu peel complex extracts as active ingredients” (Medicare Pharmaceuticals Inc., priority 2018, dated 2022).
# System: high-fat diet mouse model
# Test: Therapeutic effect on hyperlipidemia and hypercholesterolemia in high-fat diet mouse model (blood cholesterol and triglycerides)
# Type: in vivo
# Conditions: high-fat diet female ICR mice, oral once a day for 12 weeks; complex extracts 100 mg/kg/day, Lovastatin 20 mg/kg/day
# Experimental: 64 six-week-old female ICR mice were purchased from SLC Co. and acclimated for one week under breeding conditions of a temperature range of 22±1° C., a humidity range of 41±1%, and a 12-hour light/12-hour dark cycle. During this period, the mice were fed a normal diet. Then, the mice were randomly divided into 16 and 48 individuals. To adapt the mice to feed, the 16 individuals (a normal diet-fed group) were fed a normal diet (CA.170481, Teklad Co.) and the 48 individuals (a high-fat diet-fed group) were fed a high-fat diet (D12451, Research Diets Co.) containing 45 kcal % fat under the same breeding conditions as above for one week.
# Specifically, eight mice were selected from the normal diet-fed group and assigned to a normal diet group. 24 mice were selected from the high-fat diet-fed group, eight of which were assigned to a high-fat diet group, a high-fat diet+complex extracts administration group, and a high-fat diet+Lovastatin administration group, respectively. Each experimental group was orally administered distilled water or the Artemisiae capillaris Herba and Citrus unshiu Peel complex extracts of Examples 1-3 containing the highest content of scoparone once a day for 12 weeks. In addition, a comparison group was orally administered Lovastatin (Hanmi Pharm. Co., Ltd), which is used to treat hyperlipidemia and hypercholesterolemia, once a day for 12 weeks. In this case, the complex extracts and Lovastatin were each suspended in distilled water and administered orally. In addition, the normal group was fed a normal diet and other experimental groups were fed a high-fat diet for 12 weeks.
# In the experimental groups of Experimental Example <2-1>, changes in the contents of triglycerides and cholesterol were confirmed.
# Specifically, each experimental group of Experimental Example <2-1> was orally administered samples for 12 weeks. On the last day of the experiment, all animals were bled under ether inhalation anesthesia, and 1 mL of the collected blood was centrifuged for 10 minutes at 3,000 rpm to isolate plasma. The contents of total cholesterol, triglycerides, and low density lipoprotein cholesterol (LDL) in the isolated plasma were measured using an Analyst III kit (Hemagen Diagnositics Co.) according to a manufacturer's procedure, and the content of high density lipoprotein cholesterol (HDL) was measured using an AU400 kit (Olympus Co.) according to a manufacturer's procedure.
smiles,measurement,value
CC[C@H](C)C(=O)O[C@H]1C[C@@H](C)C=C2C=C[C@H](C)[C@H](CC[C@@H]3C[C@@H](O)CC(=O)O3)[C@H]21 [Lovastatin],Serum content HDL,62.44 ± 1.96 mg/dL
same,Serum content LDL,14.91 ± 0.46 mg/dL
same,Serum content Total cholesterol,83.26 ± 7.40 mg/dL
same,Serum content Triglycerides,81.43 ± 5.24 mg/dL
